For data set [1] the following is noted: literature data, Deres K. et al. Science 2003, 893-896; cited from earlier work.
A short description of data set [2]: Mouse SDPK (single dose PK in male ICR mouse, plasma and liver). Format: in vivo. To be noted: male ICR mice; for bioavailability / AUC(0-inf) / clearance: mouse; for bioavailability: 1 mg/kg IV, 3 mg/kg PO, read-out: F (bioavailability); for clearance: read-out: Plasma Cl (IV). The protocol:
The single dose PK in male ICR mouse was performed to assess their pharmacokinetic properties. Two groups of animals were dosed via either bolus intravenous (IV) or oral gavage (PO) of the respective compound. The animals for oral administration were fasted overnight prior to dosing and food was resumed 4 hours postdose. Blood samples (approximately 400 μL) were collected via cardiac puncture after euthanasia by carbon dioxide inhalation at 2 mins, 5 mins, 15 mins, 30 mins, 1 h, 2 hrs, 4 hrs, 6 hrs, 8 hrs, and 24 hrs postdose for IV group, and at 5 mins, 15 mins, 30 mins, 1 h, 2 hrs, 4 hrs, 6 hrs, 8 hrs, and 24 hrs postdose for PO group. Blood samples were placed into tubes containing sodium heparin and centrifuged at 8000 rpm for 6 minutes at 4° C. to separate plasma from the samples. Following centrifugation, the resulting plasma was transferred to clean tubes for bioanalysis on LC/MS/MS. The pharmacokinetic parameters were calculated using non-compartmental module of WinNonlin® Professional 5.2.

The subject of data set [3] is HBV. To be noted: literature data, Deres K. et al. Science 2003, 893-896; cited from earlier work.
The subject of data set [4] is HBV. Kind of data set: Anti-HBV activity in vitro in HepG2.2.15 cells (extracellular HBV DNA by qPCR). Format: cell-based, Hepatitis B virus. The note with it: HepG2.2.15 cells, in-house data, read-out: EC50. In a few lines:
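HepG2.2.15 cells, which constitutively produce HBV, were seeded overnight and then treated for 5 days with half-log serially diluted compounds at 0.5% final DMSO. Extracellular HBV DNA in culture supernatant was extracted and quantified by qPCR.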

Data set [5] deals with HBV. Nature of the data set: Selectivity index (CC50 value/EC50 value). Format: cell-based, Hepatitis B virus. In a few lines: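 Ratio of CC50 to EC50, measuring antiviral activity against HBV relative to cytotoxicity in vitro; higher values indicate greater separation between viral inhibition and cell death.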
A short description of data set [6]: Lyophilisation solubility assay (Lysa). Format: physicochemical. The note with it: phosphate buffer, pH 6.5, aqueous buffer, thermodynamic from solid. In a few lines:
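Duplicate samples from 10 mM DMSO stocks are dried, redissolved in 0.05 M phosphate buffer pH 6.5, stirred 1 h, shaken 2 h and left overnight. Filtrate and its 1/10 dilution are quantified by direct UV or HPLC-UV, giving solubility in μg/mL.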

A short description of data set [7]: Cytotoxicity (CC50) in HepDE19 cells, CCK-8 cell viability. Type of data set: cell-based. To be noted: human, HepDE19 cells; read-out: CC50. A digest of the protocol: (§1)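 HBV-transfected HepG2-derived HepDE19 cells grown in DMEM-F12 with 10% FBS and G418. Viability read five days after treatment by CCK-8, 2 h at 37 °C, absorbance at 450 and 630 nm.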
Data set [8] can be described thus: Metabolic stability study in human microsome. Format: in vitro ADME. In a few lines:
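Human liver microsomes (0.5 mg/mL) with 1 μM compound in 100 mM phosphate pH 7.4 at 37 °C, started with 1 mM NADPH or an NADPH-regenerating system. Samples taken at 0, 3, 6, 9, 15 and 30 min, quenched in methanol. Parent remaining measured by LC-MS/MS; no-cofactor controls included.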

A further data set has as its system HepDE19 cells. Nature of the data set: Cytotoxicity (CC50) in HepDE19 cells, CCK-8 cell viability. Type of data set: cell-based. In a few lines: as §1
[9] abbreviates: plasma, dose 1 mg/kg IV, read-out: Plasma AUC(0-∞) (IV).
Setting [10] is: plasma, dose 3 mg/kg PO, read-out: Plasma AUC(0-∞) (PO).

In brackets after ≈: the same amount, converted by molar mass. Read-outs that look alike come from different tables or passages of the source. Marks after values point to notes of the source that are not given here.

With `COC(=O)C1=C(C)NC(c2ncc(F)cc2F)=N[C@H]1c1ccc(F)cc1Cl` [Bay 41-4109, reference compound], the “F (bioavailability)” value in data set [1] was “(31^1) %”; in [2] (plasma, 5 mg/kg IV, 30 mg/kg PO), 21%. In addition, the “Plasma Cl (IV)” value in data set [1] was “(67^1) mL/min/kg”; in [2] (plasma, dose 5 mg/kg IV), 60 mL/min/kg. Besides, in data set [2] (plasma, dose 5 mg/kg IV), the “Plasma AUC(0-∞) (IV)” value stood at 1380 ng·h/mL. Further, the “Plasma AUC(0-∞) (PO)” value in data set [2] (plasma, dose 30 mg/kg PO) was 1740 ng·h/mL. For the same molecule, the figures for the EC50 with HBV [3] and in the data set with HBV [4] were 50 nM and 87 nM, respectively.
Consider `COC(=O)C1=C(CN2CC(F)(F)C[C@H]2C(=O)O)NC(c2nccs2)=N[C@H]1c1ccc(F)cc1Cl` [Example 2, (R)-6-((S)-2-Carboxy-4,4-difluoro-pyrrolidin-1-ylmethyl)-4-(2-chloro-4-fluoro-phenyl)-2-thiazol-2-yl-1,4-dihydro-pyrimidine-5-carboxylic acid methyl ester], for which the “Selectivity index (CC50/EC50)” value in the data set on HBV [5] was determined as 31481. Further, the solubility (thermodynamic) – broadly, solubility found after equilibrating the solid with the medium – in [6] was more than 698 µg/mL. Also, in data set [7], the CC50 (commonly the concentration that lowers cell viability or growth by half) at 5 days stood at 85000 nM. Moreover, in data set [8], the “Human Hepatic Clearance” value is on record as 3.65 mL/min/kg. The “Liver AUC(0-∞) (PO)” value in [2] (dose 3 mg/kg PO) was determined as 18000 ng·h/mL. In addition, in data set [2] (plasma), the bioavailability (commonly dose-corrected exposure relative to a reference, in per cent) worked out at 94%. The results for the AUC(0-inf) in data set [2] (setting [9]) and in [2] (setting [10]) were 995 ng·h/mL and 2790 ng·h/mL, respectively. The clearance in data set [2] (plasma, dose 1 mg/kg IV) was determined as 17 mL/min/kg. Moreover, the EC50 (in general, the concentration at which the effect is half-maximal) with HBV [4] (Hepatitis B virus) was determined as 2.7 nM.
The molecule `COC(=O)C1=C(CN2CCOC[C@H]2C(=O)O)N=C(c2nccs2)N[C@H]1c1ccc(F)cc1Cl` [Example 5, (S)-4-[(R)-6-(2-Chloro-4-fluoro-phenyl)-5-methoxycarbonyl-2-thiazol-2-yl-3,6-dihydro-pyrimidin-4-ylmethyl]-morpholine-3-carboxylic acid] registered a thermodynamic solubility in data set [6] of more than 660 µg/mL. The molecule further registered a CC50 in the data set with HepDE19 cells of more than 100000 nM. The “Human Hepatic Clearance” value in data set [8] was 2.7 mL/min/kg. Further, the “Liver AUC(0-∞) (PO)” value in data set [2] (dose 3 mg/kg PO) is 11800 ng·h/mL. Further, in data set [2] (plasma, dose 3 mg/kg PO), the “Plasma AUC(0-∞) (PO)” value came out at 962 ng·h/mL. In data set [2] (plasma), the bioavailability is 37%. Besides, in [2] (setting [9]), the AUC(0-inf) worked out at 878 ng·h/mL. For the same molecule, the clearance in [2] (plasma, dose 1 mg/kg IV) was 19 mL/min/kg.
Regarding `COC(=O)C1=C(CN2CC(F)(F)C[C@H]2C(=O)O)NC(c2nc(C)cs2)=N[C@H]1c1ccc(F)cc1Cl` [Example 16, (R)-6-((S)-2-Carboxy-4,4-difluoro-pyrrolidin-1-ylmethyl)-4-(2-chloro-4-fluoro-phenyl)-2-(4-methyl-thiazol-2-yl)-1,4-dihydro-pyrimidine-5-carboxylic acid methyl ester], in the data set on HBV [5], the “Selectivity index (CC50/EC50)” value was 15000. For the same molecule, in [6], the thermodynamic solubility was more than 622 µg/mL. Further, in [7], the 50% cytotoxic concentration (CC50) at 5 days was found to be 30000 nM. The “Human Hepatic Clearance” value in data set [8] is 6.35 mL/min/kg. For the same molecule, the “Liver AUC(0-∞) (PO)” value in data set [2] (dose 3 mg/kg PO) turned out to be 35200 ng·h/mL. Besides, the bioavailability in data set [2] (plasma) is 69%. The AUC(0-inf) came to 290 ng·h/mL in data set [2] (setting [9]) and 598 ng·h/mL in [2] (setting [10]). In addition, the clearance in data set [2] (plasma, dose 1 mg/kg IV) worked out at 57 mL/min/kg. In addition, the EC50 in the data set on HBV [4] (Hepatitis B virus) stood at 2 nM.
For `COC(=O)C1=C(CN2CCOC[C@H]2C(=O)O)NC(c2nc(C(F)(F)F)cs2)=N[C@H]1c1ccc(F)cc1Cl` [Example 95, (S)-4-[(R)-6-(2-Chloro-4-fluoro-phenyl)-5-methoxycarbonyl-2-(4-trifluoromethyl-thiazol-2-yl)-3,6-dihydro-pyrimidin-4-ylmethyl]-morpholine-3-carboxylic acid], in the data set with HBV [5], the “Selectivity index (CC50/EC50)” value is 40000. Further, in data set [6], the thermodynamic solubility was more than 705 µg/mL. In addition, in the data set with HepDE19 cells, the CC50 was more than 100000 nM. Moreover, the “Human Hepatic Clearance” value in [8] was found to be 3.04 mL/min/kg. Besides, the EC50 in the data set with HBV [4] (Hepatitis B virus) was found to be 2.5 nM.
Regarding `CCOC(=O)C1=C(CN2CCOC[C@H]2C(=O)O)NC(c2nccs2)=N[C@H]1c1ccc(F)c(F)c1C` [Example 96, (S)-4-[(S)-6-(3,4-Difluoro-2-methyl-phenyl)-5-ethoxycarbonyl-2-thiazol-2-yl-3,6-dihydro-pyrimidin-4-ylmethyl]-morpholine-3-carboxylic acid], in the data set with HBV [5], the “Selectivity index (CC50/EC50)” value turned out to be 161667. Besides, in [6], the solubility (thermodynamic) is more than 628 µg/mL. Moreover, the CC50 in the data set with HepDE19 cells was 97000 nM. Also, the “Human Hepatic Clearance” value in data set [8] is given as 4.8 mL/min/kg. The EC50 with HBV [4] (Hepatitis B virus) was found to be 0.6 nM.
Taken in the same sequence, the figures for `CC(C)OC(=O)C1=C(CN2CCOC[C@H]2C(=O)O)NC(c2nccs2)=N[C@H]1c1ccc(F)cc1Cl` [Example 98, (S)-4-[(R)-6-(2-Chloro-4-fluoro-phenyl)-5-isopropoxycarbonyl-2-thiazol-2-yl-3,6-dihydro-pyrimidin-4-ylmethyl]-morpholine-3-carboxylic acid] were 4224, more than 650 µg/mL, 72000 nM, 0 mL/min/kg and 17 nM.
With `COC(=O)C1=C(CN2CCO[C@H](C)[C@H]2C(=O)O)NC(c2nccs2)=N[C@H]1c1ccc(F)cc1Cl` [Example 104, (2R,3S)-4-[(R)-6-(2-Chloro-4-fluoro-phenyl)-5-methoxycarbonyl-2-thiazol-2-yl-3,6-dihydro-pyrimidin-4-ylmethyl]-2-methyl-morpholine-3-carboxylic acid], the “Selectivity index (CC50/EC50)” value in the data set on HBV [5] is more than 14286. In data set [6], this molecule came in with a thermodynamic solubility of more than 667 µg/mL. For the same molecule, the CC50 with HepDE19 cells is more than 100000 nM. Also, the “Human Hepatic Clearance” value in [8] is listed as 5.42 mL/min/kg. Further, the EC50 in the data set with HBV [4] (Hepatitis B virus) came to 7 nM.
As to `COC(=O)C1=C(CN2CCOC[C@@]2(C)C(=O)O)NC(c2nccs2)=N[C@H]1c1ccc(F)cc1Cl` [Example 121, (S)-4-(((R)-6-(2-Chloro-4-fluorophenyl)-5-(methoxycarbonyl)-2-(thiazol-2-yl)-3,6-dihydropyrimidin-4-yl)methyl)-3-methylmorpholine-3-carboxylic acid], the “Selectivity index (CC50/EC50)” value with HBV [5] is listed as more than 5000. This molecule also gave a solubility (thermodynamic) in data set [6] of 600 µg/mL (≈ 1180 µM). In addition, in the data set on HepDE19 cells, the CC50 is more than 100000 nM. In addition, in [8], the “Human Hepatic Clearance” value was 1.42 mL/min/kg. Further, the EC50 in the data set with HBV [4] (Hepatitis B virus) turned out to be 20 nM.
As to `CCOC(=O)C1=C(CN2CCOC[C@H]2C(=O)O)NC(c2nccs2)=N[C@H]1c1ccc(F)c(F)c1Br` [Example 128, (3S)-4-[[(4R)-4-(2-Bromo-3,4-difluorophenyl)-5-ethoxycarbonyl-2-(1,3-thiazol-2-yl)-1,4-dihydropyrimidin-6-yl]methyl]morpholine-3-carboxylic acid], in the data set on HBV [5], the “Selectivity index (CC50/EC50)” value is reported as 85000. This molecule also gave a thermodynamic solubility in [6] of more than 710 µg/mL. This molecule gave a CC50 in the data set with HepDE19 cells of 51000 nM. Also, the “Human Hepatic Clearance” value in data set [8] worked out at 0.26 mL/min/kg. The EC50 in the data set on HBV [4] (Hepatitis B virus) was found to be 0.6 nM.

Values taken from patent publication US9447086B2, “6-amino acid heteroaryldihydropyrimidines for the treatment and prophylaxis of hepatitis B virus infection” (priority 2012, dated 2016).
